{"source": "paper PMC5587642", "about": "“A Novel Benzocoumarin-Stilbene Hybrid as a DNA ligase I inhibitor with in vitro and in vivo anti-tumor activity in breast cancer models” (Scientific Reports, 2017)", "key": {"plasmid DNA (pUC18)": {"tested_on": "plasmid DNA (pUC18)", "assay": "DNaseI cleavage protection assay", "type": "binding", "conditions": "up to 500 µM", "procedure": "We performed DNaseI cleavage assay as described in our previous study. Briefly, 100 ng of plasmid DNA (pUC18) was incubated with 100 µM concentration of doxorubicin (a known DNA intercalator), DAPI (DNA minor groove binder), methyl green (DNA major groove binder) and compound 19 (at 250 and 500 µM concentrations) for 30 min at 37 °C in an incubation buffer similar to ligation buffer. After incubation, the DNA was cleaved by adding 0.0025U of DNaseI in each reaction mixture for 5 min at 37 °C and the reactions were stopped by adding stop buffer which contained 7 M Urea, 20 mM Tris-Cl (pH. 7.5), 50 mM EDTA, 20% glycerol and Bromophenol blue. The samples were resolved on 1% agarose gel and visualized under UV transilluminator and image taken with GE Image quant LAS4010."}, "MDA-MB-231 cells [1]": {"tested_on": "MDA-MB-231 cells", "assay": "Western blotting of DNA damage and apoptosis markers", "type": "cell-based, human", "conditions": "6 and 12 µM, 48 h", "procedure": "Cells (MDA-MB-231) were seeded in 6 well plates and treated either with vehicle control (DMSO) or with different concentrations (6 and 12 µM) of compound 19 for 48 h. After the treatment cell lysate was prepared and western blotting was performed as described previously. Briefly, the cells were lysed by very brief sonication. Sonicated samples were centrifuged and the supernatant was collected and used for ligation assay and western blotting."}, "[2]": {"assay": "Stability in simulated gastric and intestinal fluids", "type": "in vitro ADME", "conditions": "2 µg/mL, up to 180 min", "procedure": "Simulated gastric fluid (SGF) and simulated intestinal fluid (SIF) were prepared according to USP specifications. The compound 19 was incubated in SGF (0.2 g NaCl, 0.32 g pepsin, 0.7 mL HCl and triple distilled water up to 100 mL, pH 1.2) or SIF (0.680 g […], 0.616 g NaOH, 1 g pancreatin and triple distilled water up to 100 mL, pH 6.8). From the stock solution of compound 19 (1 mg/mL), equivalent concentration of 2 μg/mL of compound 19 were added to 1 mL of preincubated reaction mixture of SGF and SIF, at 37 °C in a shaking water bath in triplicate. 100 μL aliquots of sample was collected at each time point at 0, 5, 15, 30 and 60 min for SGF and 0, 5, 15, 30, 60 90, 120 and 180 min for SIF according to the human gastrointestinal transit time, followed by quenching with acetonitrile, then vortexed and centrifuged at 12000 rpm for 5 min. The supernatant was collected and analyzed by HPLC. The graph was plotted between % drug remaining and incubation time for SGF and SIF."}, "[3]": {"tested_on": "MCF-10A (Normal breast epithelial cells)", "assay": "MTT cell viability assay", "type": "cell-based, human", "procedure": "(§1) Cell viability assay was performed as described previously. Briefly, cells were seeded in 96 well plates and treated with different concentrations of compound 19 for 48 h. After drug treatment, MTT reagent was added in each well of the plate and cell viability was quantified by measuring the absorbance at 590 nm."}, "MDA-MB-231 cells [4]": {"tested_on": "MDA-MB-231 cells", "assay": "MTT cell viability assay", "type": "cell-based, human", "conditions": "for IC50: MTT, 48 h", "procedure": "as §1"}, "hLigI [5]": {"target": "T1, hLigI (Homo sapiens, UniProt P18858)", "T1 construct": "made in house", "T1 sequence (P18858 whole entry)": "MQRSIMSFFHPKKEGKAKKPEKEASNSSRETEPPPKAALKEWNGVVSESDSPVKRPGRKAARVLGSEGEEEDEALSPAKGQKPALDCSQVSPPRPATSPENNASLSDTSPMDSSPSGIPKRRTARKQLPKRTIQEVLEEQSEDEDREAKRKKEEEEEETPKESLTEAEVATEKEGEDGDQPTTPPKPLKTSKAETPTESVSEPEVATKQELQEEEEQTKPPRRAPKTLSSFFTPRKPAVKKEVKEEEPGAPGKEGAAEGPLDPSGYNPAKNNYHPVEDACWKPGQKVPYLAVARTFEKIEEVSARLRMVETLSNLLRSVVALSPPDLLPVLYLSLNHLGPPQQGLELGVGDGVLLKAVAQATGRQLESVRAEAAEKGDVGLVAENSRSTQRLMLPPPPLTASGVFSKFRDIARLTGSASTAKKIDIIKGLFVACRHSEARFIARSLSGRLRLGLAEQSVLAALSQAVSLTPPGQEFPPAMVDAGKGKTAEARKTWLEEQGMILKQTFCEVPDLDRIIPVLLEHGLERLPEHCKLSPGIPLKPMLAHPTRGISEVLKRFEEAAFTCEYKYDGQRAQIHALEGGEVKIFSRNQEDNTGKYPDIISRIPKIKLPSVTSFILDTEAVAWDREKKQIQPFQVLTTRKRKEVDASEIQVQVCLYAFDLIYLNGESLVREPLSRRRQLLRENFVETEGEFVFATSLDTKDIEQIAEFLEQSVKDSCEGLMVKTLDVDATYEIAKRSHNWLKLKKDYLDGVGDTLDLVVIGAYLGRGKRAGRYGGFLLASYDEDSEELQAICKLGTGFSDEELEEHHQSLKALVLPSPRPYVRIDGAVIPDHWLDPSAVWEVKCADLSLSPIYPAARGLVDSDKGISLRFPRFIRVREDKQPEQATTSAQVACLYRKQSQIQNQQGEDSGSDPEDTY", "assay": "Circular dichroism study", "type": "binding", "conditions": "5 and 10 µM", "procedure": "We followed previously described protocol for CD studies[40] with small modifications. Briefly, emission spectra of hLigI (100 pmol) was recorded at a wavelength of 190-250 nm in the presence (5 and 10 µM) or absence of compound 19 by spectropolarimeter. The raw values in mdeg were obtained and used for mean residual ellipticity [θ] calculation. The graph was generated by the plotting the value of mean residue ellipticity in deg cm^2 dmol^−1 with respect to wavelength."}, "MDA-MB-231 cells [6]": {"tested_on": "MDA-MB-231 cells", "assay": "Scratch (migration) assay", "type": "cell-based, human", "conditions": "3 and 6 µM; 12 and 24 h", "procedure": "The migration capacity of highly metastatic human breast cancer MDA-MB-231 cells was assessed by in-vitro scratch assay as described previously[36] with some modifications. Briefly, cells were plated in 12 well plates and a scratch was created by scraping the cells with a sterile 10 μL pipet tip in the middle of the culture well. After removal of cellular debris, the cells were treated with different concentrations of the test compound. Images of the wound area were captured at 0, 12 and 24 h post-treatment. Wound area was measured by TScratch software and data were expressed as percent (%) open area of control and treated cells."}, "hLigI [7]": {"target": "T1, hLigI", "assay": "In-vitro fluorescence quenching assay", "type": "binding", "conditions": "5 and 10 µM, excitation 280 nm", "procedure": "In-vitro fluorescence quenching assay was performed as described previously[16] with brief modifications. At the fixed excitation wavelength 280 nm emission spectra of hLigI (100 pmol) was recorded from 300 to 400 nm in the presence (5 and 10 µM) or absence of compound 19 by spectrofluorometer. Compound 19 was used at 5 and 10 µM concentration with hLigI (100 pmol). Spectra was acquired for buffer alone (50 mM Tris-HCl, pH 7.5, 50 mM NaCl, 1 mM ATP, 10 mM MgCl2, 2 mM DTT and 5% glycerol), buffer with vehicle control, buffer with inhibitor alone and for buffer with protein and inhibitor."}, "[8]": {"tested_on": "4T1 mouse breast cancer induced syngeneic breast tumor", "assay": "Syngeneic 4T1 orthotopic breast cancer model", "type": "in vivo, BALB/c mice", "conditions": "50 and 100 mg/kg, oral gavage daily for 32 days", "procedure": "Animal studies were conducted under the protocol approved by the CSIR-CDRI Institutional Animal Ethics Committee (IAEC approval no. IAEC/2015/03). The in-vivo efficacy studies were performed using BALB/c mice with 4T1 mouse breast cancer induced syngeneic breast tumor model. Mouse tumor model was generated as described by Pulaski et al.[38]. Three different groups of 6 mice each were created for the experiment. Mouse breast cancer cells (4T1) were grown in tissue culture flask upto 70% confluence. Cells were then trypsinized, washed with serum containing medium to quench trypsin activity and then washed and resuspended in PBS. Then cells were injected orthotopically (1 × 10^6 cells in 100 μl PBS) into the mammary fat pad on the right flank of each female BALB/c mouse. Within 2 weeks, palpable tumors were formed and tumor bearing mice were divided randomly into one control and two treatment groups of six mice each. The treatment schedule began on day 16 of the injection and continued for another thirty two days. Compounds were administered by oral gavage once daily at 50 and 100 mg/kg. Tumor volumes were measured every fourth day. The group of vehicle treated animals served as control. The tumor volume, body weight and any behavioral changes in mice were monitored and recorded for the entire duration of the experiment (32 days). Tumor volumes were calculated using the formula (a × b^2)/2, where a, b are two longest perpendicular diameters."}}, "note": "“Also recorded” adds a separate entry of the source."}
{"compound": "COc1cc(/C=C/c2cc(=O)oc3c2ccc2ccccc23)cc(OC)c1", "note": "[Compound 19, (E)-4-(3,5-dimethoxystyryl)-2H-benzo[h]chromen-2-one]", "values": [{"measurement": "Protection of DNA from cleavage by DNase I (DNA binding)", "setting": "plasmid DNA (pUC18)", "value": "no protection from cleavage by DNase I"}, {"measurement": "Apoptotic signaling (p53, MDM2, PCNA, caspase 9, caspase 3, PARP-1)", "setting": "MDA-MB-231 cells [1]", "value": "promotes p53 mediated intrinsic pathway of apoptosis"}, {"measurement": "DNA damage marker γH2AX expression", "setting": "MDA-MB-231 cells [1]", "value": "increased expression of γH2AX"}, {"measurement": "Stability in SGF (simulated gastric fluid)", "setting": "[2]; pH 1.2, 37 °C", "value": "83.19 ± 3.22", "unit": "%"}, {"measurement": "Stability in SIF (simulated intestinal fluid)", "setting": "[2]; pH 6.8, 37 °C", "value": "96.45 ± 0.79", "unit": "%"}, {"measurement": "% Inhibition of cell viability at 10 µM, MCF-10A (Normal breast epithelial cells)", "setting": "[3]", "value": 50.83, "unit": "%"}, {"measurement": "% Inhibition of cell viability at 10 µM, MDA-MB-231 (Breast)", "setting": "MDA-MB-231 cells [4]; 10 µM", "value": 51.35, "unit": "%"}, {"measurement": "inhibition at 10 µM", "setting": "MDA-MB-231 cells [4]; Homo sapiens, MDA-MB-231, 48 h, 10 μM, % inhibition, read-out: Antiproliferative activity at 10μM in MDA-MB-231", "value": "> 50", "unit": "%"}, {"measurement": "IC50", "setting": "MDA-MB-231 cells [4]; Homo sapiens, MDA-MB-231, 48 h", "value": "12.5 ± 2.8", "unit": "µM"}, {"measurement": "Comparative cell viability versus parent compounds", "setting": "MDA-MB-231 cells [4]; MDA-MB-231, versus Neo-tanshinlactone and resveratrol", "value": "more active as compared to parent compounds"}, {"measurement": "IC50", "setting": "MDA-MB-231 cells [4]", "value": 12, "unit": "µM"}, {"measurement": "Conformational change of hLigI (CD)", "setting": "hLigI [5]", "value": "promoted conformational changes in protein"}, {"measurement": "Cell migration (percent open area)", "setting": "MDA-MB-231 cells [6]", "value": "significantly inhibit the cell migration"}, {"measurement": "Change of hLigI fluorescence spectra (protein binding)", "setting": "hLigI [7]", "value": "fluorescence spectra of the full length hLigI protein changed"}, {"measurement": "Average body weight", "setting": "[8]", "value": "no significant change in the average body weight"}, {"measurement": "Breast cancer metastasis to the lungs (4T1 nodules)", "setting": "[8]", "value": "marked decrease in breast cancer metastasis to the lungs"}, {"measurement": "Breast tumor growth in-vivo", "setting": "[8]", "value": "inhibited breast tumor growth in-vivo in a dose dependent manner; also recorded: arrested tumor progression but could not induce tumor regression"}]}
